Drawing on the OligoGym collection, this text covers target mRNA inhibition for 81 sequences.

For this data set, the target named is HSD17B13. Particulars: ASO, HepaRG.

After the bases stand the sugars from the 5' end (letter, count) and the backbone: PS all phosphorothioate, else s phosphorothioate and o phosphodiester by linkage. Methylation of C is not given here. e = 2'-O-(2-methoxyethyl) (MOE); k = constrained ethyl (cEt); d = 2'-deoxy (DNA); m = 2'-O-methyl

For the sequence TATATAACATGGCTGG (sugars k3 d10 k3, PS), the target mRNA inhibition (1 µM) amounted to 8%.
As to GTACTATAGTATTTAC (sugars k3 d10 k3, PS), under “1 µM”, the target mRNA inhibition was 27%.
Same read-out and setting: the figure for GAACCCAGTATTCACA (sugars k3 d10 k3, PS) is 0%.
On the same count and under the same terms, the figure for ACATAGCTAACTCAGG (sugars k3 d10 k3, PS) is 38%; for TTTTTGGACAAATGCC (sugars k3 d10 k3, PS) it is 50%.
Same read-out and setting: with AAAGTGTCCTCGATCC (sugars k3 d10 k3, PS) the figure was 36%.
Take CTGCATTAATGCCACC (sugars k3 d10 k3, PS): the target mRNA inhibition was 0% (0.02 µM); 0% (0.078 µM); 17% (0.313 µM); 67% (1 µM); 40% (1.25 µM); 81% (5 µM).
As for ATAAGAAGAGAGCTCA (sugars k3 d10 k3, PS), the target mRNA inhibition (1 µM) came out at 14%.
Still for that read-out and setting: the figure for CCAAAAATCAGCCACT (sugars k3 d10 k3, PS) is 0%; for CAGATTATTATGTGAT (sugars k3 d10 k3, PS) it is 51%; for CAGAAATTCACCTTGA (sugars k3 d10 k3, PS) it is 28%.
For GATATGTCAATACTCC (sugars k3 d10 k3, PS), the target mRNA inhibition (1 µM) is 59%.
Under “1 µM”, “CACAAGTAAGGTAAAG (sugars kkdddddddddkekek, PS)” yielded a target mRNA inhibition of 38%.
Still for that read-out and setting: with ACATATGGTGTACACT (sugars k3 d10 k3, PS) the figure was 19%.
The same measure, in the same setting: the figure for CTAATAACTACATGAC (sugars k3 d10 k3, PS) is 18%; for TAACTCTATTGATTGG (sugars k3 d10 k3, PS) it is 51%.
The same measure, in the same setting: the figure for ACAGAGGAGTTTGCAG (sugars k3 d10 k3, PS) is 37%.
For the sequence “GTATGTTTATGTAAGC (sugars kkdddddddddkekek, PS)”, the target mRNA inhibition reads like this: (0.02 µM) 11%; (0.078 µM) 27%; (0.313 µM) 53%; (1 µM) 72%; (1.25 µM) 63%; (5 µM) 68%.
The sequence AGTAGTGTAAGCTGAG (sugars k3 d10 k3, PS) had a target mRNA inhibition (0.02 µM) of 0%; a target mRNA inhibition (0.078 µM) of 4%; a target mRNA inhibition (0.313 µM) of 50%; a target mRNA inhibition (1 µM) of 88%; a target mRNA inhibition (1.25 µM) of 78%; a target mRNA inhibition (5 µM) of 92%.
On to CTGCAAAGTTAATAGG (sugars k3 d10 k3, PS), for which, for the setting “1 µM”, the target mRNA inhibition was 57%.
The same measure, in the same setting: with TCCGGTAAGAATTTCG (sugars k3 d10 k3, PS) the figure was 63%; with AGCGAATGTTAAAACT (sugars k3 d10 k3, PS), 16%; with ACATAACTACTTCAGT (sugars k3 d10 k3, PS), 28%.
Same read-out and setting: the figure for “CTTTGAGACTCTTGTT (sugars k3 d9 k3 e1, PS)” is 57%; for “TTGCAGAAATTCACCT (sugars kkdddddddddkekek, PS)” it is 46%.
Still for that read-out and setting: with ATAATAGCTCTATTGG (sugars k3 d10 k3, PS) the figure was 46%; with “CTGCATTAATGCCACC (sugars k3 d1 m1 d8 k3, PS)”, 52%.
In turn, TCTCCATCATCGATGG (sugars k3 d10 k3, PS) came in with a target mRNA inhibition (1 µM) of 24%.
As to AAACATAGGCTTAGTG (sugars k3 d10 k3, PS), the target mRNA inhibition (1 µM) came out at 16%.
Consider ACATTGCAGTTATTAG (sugars k3 d10 k3, PS), for which, where the note is “1 µM”, the target mRNA inhibition is 42%.
With “TGGAATGCTACTTGAA (sugars kkdddddddddkekek, PS)”, the target mRNA inhibition (1 µM) is 68%.
Turning to CCAGAAAGTTCATTCG (sugars k3 d10 k3, PS), the target mRNA inhibition reads like this: (0.02 µM) 38%; (0.078 µM) 51%; (0.313 µM) 64%; (1 µM) 81%; (1.25 µM) 79%; (5 µM) 91%.
In the case of GCATAAGAGATGAGTA (sugars k3 d10 k3, PS), the target mRNA inhibition (1 µM) was 33%.
The sequence CATCCCCTAAGTTATT (sugars k3 d10 k3, PS) gave a target mRNA inhibition (1 µM) of 24%.
The same measure, in the same setting: with CCGAAAAAAGTGGAGG (sugars k3 d10 k3, PS) the figure was 31%; with TAGTCCTAGGGAGGAG (sugars k3 d10 k3, PS), 68%; with TTAAACTCCAATGTGT (sugars k3 d10 k3, PS), 36%.
The same measure, in the same setting: with TTGAGAGAACTTATAC (sugars k3 d10 k3, PS) the figure was 21%; with “ATAGAGTCGGTCACCT (sugars k3 d9 k3 e1, PS)”, 67%; with ATAAACATAGGCTTAG (sugars k3 d10 k3, PS), 41%.
In the case of GTAAATTGAATAGCCA (sugars k3 d10 k3, PS), the target mRNA inhibition (1 µM) was 55%.
On to TTCTGATGTCAGACCT (sugars k3 d10 k3, PS), for which, for the setting “1 µM”, the target mRNA inhibition was 42%.
Consider “ATATUCTGTGGCATGG (sugars k3 d1 m1 d8 k3, PS)”, for which the target mRNA inhibition (1 µM) was 63%.
Where the note is “1 µM”, AGAGTCGGTCACCTTT (sugars k3 d10 k3, PS) showed a target mRNA inhibition of 71%.
Where the note is “1 µM”, CTAGGAAGTGATCCAT (sugars k3 d10 k3, PS) came in with a target mRNA inhibition of 66%.
With “TTACAGCATCAAGACA (sugars k3 d1 m1 d8 k3, PS)”, the target mRNA inhibition (1 µM) was determined as 46%.
As for CTGCGCACATATTTTA (sugars k3 d10 k3, PS), the target mRNA inhibition by setting is: (0.02 µM) 0%; (0.078 µM) 0%; (0.313 µM) 7%; (1 µM) 92%; (1.25 µM) 52%; (5 µM) 74%.
The sequence “GTGCCAAACCAATGTT (sugars kkdddddddddkekek, PS)” returned a target mRNA inhibition (1 µM) of 38%.
The same measure, in the same setting: with GCTGAGAAGATCGGCT (sugars k3 d10 k3, PS) the figure was 10%; with “GGTTGAGATAAAGCTG (sugars k3 d1 m1 d8 k3, PS)”, 57%; with CCATAAAGCTGGATTG (sugars k3 d10 k3, PS), 40%.
Same read-out and setting: the figure for TGCTAAGTAGTAATTC (sugars k3 d10 k3, PS) is 32%; for GCAGAGACATGAGGTT (sugars k3 d10 k3, PS) it is 55%.
Where the note is “1 µM”, GCATTAAAACTCTCAT (sugars k3 d10 k3, PS) gave a target mRNA inhibition of 35%.
On the same count and under the same terms, the figure for AAGATTAGTTAACCTT (sugars k3 d10 k3, PS) is 24%.
“TTGCAGAAATTCACCT (sugars k3 d1 m1 d8 k3, PS)” returned a target mRNA inhibition (1 µM) of 29%.
As to “TGTCCACCTTTAAATG (sugars kkdddddddddkekek, PS)”, the target mRNA inhibition (1 µM) was 27%.
Same read-out and setting: the figure for “AGAGUTGCACCGTTTT (sugars k3 d1 m1 d8 k3, PS)” is 68%.
Same read-out and setting: with TTTTTGAACCGTATTC (sugars k3 d10 k3, PS) the figure was 56%.
On the same count and under the same terms, with TTAGAGAGCGATAGAT (sugars k3 d10 k3, PS) the figure was 23%.
On to “GTCTUAAACCTTCCCT (sugars k3 d1 m1 d8 k3, PS)”, for which the target mRNA inhibition (1 µM) worked out at 35%.
With TGCTCCATAATAATAG (sugars k3 d10 k3, PS), the target mRNA inhibition (1 µM) was 35%.
Take AGCTTTTGTCCACCTT (sugars k3 d10 k3, PS): for the setting “1 µM”, the target mRNA inhibition was found to be 57%.
As for CACTAATCTCAGTACT (sugars k3 d10 k3, PS), where the note is “1 µM”, the target mRNA inhibition amounted to 48%.
The same measure, in the same setting: the figure for TCGGGAAGTTTAGACA (sugars k3 d10 k3, PS) is 43%.
Turning to “TGGAATGCTACTTGAA (sugars k3 d1 m1 d8 k3, PS)”, the target mRNA inhibition turned out to be 13% (0.02 µM); 27% (0.078 µM); 35% (0.313 µM); 79% (1 µM); 66% (1.25 µM); 91% (5 µM).
The sequence “GAACAGTCTTAAACCT (sugars k3 d1 m1 d8 k3, PS)” gave a target mRNA inhibition (0.02 µM) of 0%; a target mRNA inhibition (0.078 µM) of 24%; a target mRNA inhibition (0.313 µM) of 53%; a target mRNA inhibition (1 µM) of 75%; a target mRNA inhibition (1.25 µM) of 66%; a target mRNA inhibition (5 µM) of 69%.
Regarding GCCTTTTAACTACCCT (sugars k3 d10 k3, PS), the target mRNA inhibition (1 µM) is 0%.
Sequence CACGATTGTTACATCA (sugars k3 d10 k3, PS) returned a target mRNA inhibition (1 µM) of 37%.
Still for that read-out and setting: the figure for “GACATGAGGTTTTGAT (sugars kkdddddddddkekek, PS)” is 55%; for “TTATGTGATTGAGTTC (sugars k3 d1 m1 d8 k3, PS)” it is 35%; for CTTTCTATCAACCTGC (sugars k3 d10 k3, PS) it is 68%.
Still for that read-out and setting: with “TTAAACCTTCCCTGTG (sugars k3 d9 k3 e1, PS)” the figure was 18%; with TTTTATAGACTGGGTA (sugars k3 d10 k3, PS), 53%; with “TCTAAACATCTCTGGG (sugars kkdddddddddkekek, PS)”, 21%.
Still for that read-out and setting: the figure for TGAACCCAGTATTCAC (sugars k3 d10 k3, PS) is 10%.
Where the note is “1 µM”, “GATTAAGCAGAATTGT (sugars k3 d9 k3 e1, PS)” came in with a target mRNA inhibition of 28%.
In the case of “TGTCTAAACATCTCTG (sugars k3 d9 k3 e1, PS)”, the target mRNA inhibition (1 µM) stood at 69%.
In the case of CTACAAGAGGTTATTT (sugars k3 d10 k3, PS), where the note is “1 µM”, the target mRNA inhibition worked out at 31%.
TAGGAAGTGATCCATA (sugars k3 d10 k3, PS) showed a target mRNA inhibition (1 µM) of 30%.
Still for that read-out and setting: the figure for CATTAAGCTTAGTATA (sugars k3 d10 k3, PS) is 19%.
